Results published in patent US8999956B2, “N-[(het)arylalkyl)] pyrazole(thio)carboxamides and their heterosubstituted analogues” (Bayer Intellectual Property GmbH, priority 2010, dated 2015).
Like-named read-outs stand apart in the source and are kept apart here.

Assays:
[1] = test system: Sphaerotheca fuliginea; assay: In vivo preventive test on Sphaerotheca fuliginea (cucumber); conditions: 500 ppm of active ingredient, evaluated 7 days after inoculation
In short: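 Young cucumber plants sprayed with compound (in DMF with alkylarylpolyglycolether emulsifier, diluted in water) at the stated application rate. Inoculated one day later with aqueous Sphaerotheca fuliginea spore suspension. Plants then held in greenhouse at approximately 23° C and approximately 70% relative humidity.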

[2] = test system: Alternaria solani; assay: In vivo preventive test on Alternaria solani (tomato); conditions: 500 ppm of active ingredient, evaluated 7 days after inoculation
In short: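 Preventive set-up: Alternaria solani spores, as aqueous suspension, applied to young plants one day after spraying. Spray contained active compound formulated with N,N-dimethylformamide and emulsifier, water-diluted to the desired application rate.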

[3] = test system: Pyrenophora teres; assay: In vivo preventive test on Pyrenophora teres (barley); conditions: 500 ppm of active ingredient, evaluated 7-9 days after inoculation
In short: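 Preventive test: young barley plants received a water-diluted spray of compound formulated with DMF solvent plus alkylaryl polyglycol ether emulsifier, at the stated rate. Inoculation with an aqueous spore suspension of Pyrenophora teres followed one day after spraying.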

[4] = test system: Venturia inaequalis; assay: In vivo preventive test on Venturia inaequalis (apple scab); conditions: 100 ppm of active ingredient, evaluated 10 days after inoculation
In short: (§1)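 Young plants sprayed preventively at the stated application rate with compound dissolved in acetone/N,N-dimethylacetamide plus alkylaryl polyglycol ether emulsifier and diluted with water to the desired concentration.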

[5] = test system: Septoria tritici; assay: In vivo preventive test on Septoria tritici (wheat); conditions: 500 ppm of active ingredient, evaluated 21 days after inoculation
In short: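 Compound formulated in N,N-dimethylacetamide with alkylaryl polyglycol ether emulsifier and diluted in water to the stated rate. Young wheat plants sprayed preventively; after the deposit dried, they were inoculated with a Septoria tritici spore suspension.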

[6] = test system: Blumeria graminis fsp. hordei; assay: In vivo preventive test on Blumeria graminis (barley); conditions: 500 ppm of active ingredient, evaluated 7 days after inoculation
In short: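 Active compound taken up in N,N-dimethylacetamide with alkylaryl polyglycol ether emulsifier, then diluted in water to the desired concentration. Young barley plants sprayed at the stated application rate; once the coating had dried, plants were dusted with Blumeria graminis f. sp. hordei spores.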

[7] = test system: Fusarium graminearum; conditions: in vivo
[8] = test system: Leptosphaeria nodorum; assay: In vivo preventive test on Leptosphaeria nodorum (wheat); conditions: 500 ppm of active ingredient, evaluated 7-9 days after inoculation
In short: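 Plants were inoculated with aqueous L. nodorum spores one day after a protective spray. The spray contained the compound at the stated rate, as a water-diluted concentrate in N,N-dimethylacetamide plus alkylaryl polyglycol ether emulsifier.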

[9] = test system: Uromyces appendiculatus; assay: In vivo preventive test on Uromyces appendiculatus (beans); conditions: 100 ppm of active ingredient, evaluated 10 days after inoculation
In short: as §1

[10] = test system: Puccinia triticina; assay: In vivo preventive test on Puccinia triticina (wheat); conditions: Table K, 500 ppm of active ingredient, evaluated 8 days after inoculation
[11] = test system: Botrytis cinerea; assay: In vivo preventive test on Botrytis cinerea (beans)
In short: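 Young bean plants sprayed preventively with compound in acetone/dimethylacetamide/emulsifier diluted in water; after drying, each leaf inoculated with 2 agar pieces bearing Botrytis cinerea. Kept dark at 20° C, 100% humidity; lesion size scored at 2 days as % efficacy (0% = untreated, 100% = no disease).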

[12] = test system: aflatoxines produced by Aspergillus parasiticus; assay: microbe, parasite or virus in culture; assay type: cell-based
[13] = test system: Aspergillus parasiticus; assay: microbe, parasite or virus in culture; assay type: cell-based
[14] = log P by HPLC on reversed-phase column (EEC Directive 79/831 Annex V.A8); assay type: physicochemical
Protocol: In table 1, the log P values were determined in accordance with EEC Directive 79/831 Annex V.A8 by HPLC (High Performance Liquid Chromatography) on a reversed-phase column (C18), using the method described below: Temperature: 40° C.; […]

[15] = test system: Phakopsora pachyrhizi; assay: In vivo protective test on Phakopsora pachyrhizi (soybeans); conditions: Table N, 250 ppm of active ingredient, evaluated 11 days after inoculation
[16] = Table L, 500 ppm of active ingredient, lesion size 2 days after inoculation

Question: Which results are given for `Cn1nc(C(F)F)c(C(=O)N(C2CC2)C2CCCCC2Cc2ccccc2)c1F` (mixture of isomers) [Example 243]?
Answer: Efficacy [1]: 100%; Efficacy [2]: 100%; Efficacy [3]: 100%; Efficacy [4]: 100%; Efficacy [5]: 100%; Efficacy [6]: 100%; Efficacy [7]: 100%; Efficacy [8]: 100%; Efficacy [9]: 98%; Efficacy [10]: 100%; Efficacy [11, 16]: 90%; % Inhibition of Aflatoxin at 50 μM [12]: 100%; % Inhibition of fungal growth at 50 μM [13]: 100%

Question: What does the source list for `CC(CCc1ccc(Cl)c(Cl)c1)N(C(=O)c1c(C(F)F)nn(C)c1F)C1CC1` (racemic) [Example 129]?
Answer: Efficacy [1]: 100%; Efficacy [2]: 100%; Efficacy [3]: 100%; Efficacy [4]: 100%; Efficacy [5]: 80%; Efficacy [6]: 100%; Efficacy [7]: 100%; Efficacy [8]: 100%; Efficacy [9]: 99%; Efficacy [10]: 70%; % Inhibition of Aflatoxin at 50 μM [12]: 100%; % Inhibition of fungal growth at 50 μM [13]: 100%; logP [14]: 4.44

Question: What does the source list for `CC(COc1ccc(Cl)cc1Cl)N(C(=O)c1c(C(F)F)nn(C)c1F)C1CC1` (stereo not shown) [Example 187]?
Answer: Efficacy [1]: 100%; Efficacy [3]: 100%; Efficacy [4]: 100%; Efficacy [5]: 100%; Efficacy [6]: 100%; Efficacy [7]: 100%; Efficacy [8]: 90%; Efficacy [9]: 95%; Efficacy [10]: 95%; % Inhibition of Aflatoxin at 50 μM [12]: 100%; % Inhibition of fungal growth at 50 μM [13]: 100%; logP [14]: 4.16

Question: Which Efficacy [1] does the source give for `CC(CCc1ccccc1C(F)(F)F)N(C(=O)c1c(C(F)F)nn(C)c1F)C1CC1` (stereo not shown) [Example 221] here?
Answer: The Efficacy was 100%.

Question: And the Efficacy [2]?
Answer: The Efficacy was 100%.

Question: And the Efficacy [3]?
Answer: Its Efficacy is 95%.

Question: What about the Efficacy [4] of the same molecule?
Answer: The Efficacy was 100%.

Question: What about the Efficacy [5] of the same molecule?
Answer: Its Efficacy is 100%.

Question: And the Efficacy [6]?
Answer: The Efficacy was 100%.

Question: And the Efficacy [7]?
Answer: Its Efficacy is 100%.

Question: What about the Efficacy [9] of the same molecule?
Answer: The Efficacy was 100%.

Question: What about the Efficacy [10] of the same molecule?
Answer: Its Efficacy is 100%.

Question: And the Efficacy [15]?
Answer: Its Efficacy is 80%.

Question: And the “% Inhibition of Aflatoxin at 50 μM” value [12]?
Answer: The value was 100%.

Question: And the “% Inhibition of fungal growth at 50 μM” value [13]?
Answer: Its value is 100%.

Question: And the logP [14]?
Answer: The logP was 4.09.

Question: What does the source list for `Cn1nc(C(F)F)c(C(=O)N(C2CC2)C2CCCCC2Oc2ccccc2)c1F` (stereo not shown) [Example 244]?
Answer: Efficacy [1]: 100%; Efficacy [2]: 100%; Efficacy [3]: 95%; Efficacy [4]: 100%; Efficacy [5]: 100%; Efficacy [6]: 100%; Efficacy [7]: 100%; Efficacy [8]: 95%; Efficacy [9]: 100%; Efficacy [10]: 100%; Efficacy ([11]; 500 ppm of active ingredient, lesion size 2 days after inoculation): at least 85%; Efficacy ([11]; Table L4, dose 500 ppm, comparison with des-fluoro analogue): 88%; Efficacy [11, 16]: 88%; Efficacy [15]: 98%; % Inhibition of Aflatoxin at 50 μM ([12]; 50 µM): 99%; % Inhibition of fungal growth at 50 μM ([13]; 50 µM): 82%; logP [14]: 3.89

Question: Which results are given for `Cn1nc(C(F)F)c(C(=O)N(C[Si](C)(C)Cc2ccccc2)C2CC2)c1F` [Example 288]?
Answer: Efficacy [1]: 94%; Efficacy [2]: 100%; Efficacy [3]: 100%; Efficacy [4]: 100%; Efficacy [5]: 90%; Efficacy [6]: 100%; Efficacy [7]: 100%; Efficacy [8]: 100%; Efficacy [9]: 100%; Efficacy [10]: 95%; Efficacy [11, 16]: 100%; % Inhibition of Aflatoxin at 50 μM [12]: 100%; % Inhibition of fungal growth at 50 μM [13]: 99%; logP [14]: 4.03
